# Values quoted from earlier work as cited in patent publication US6525037B1, “Method of treating atherosclerosis and complications resulting therefrom” (BioNumerik Pharmaceuticals, Inc., priority 2000, dated 2003).
# Details: accepted value
compound,measurement,value
[Cl-].[Na+] [common table salt],oral LD50,3750 mg/kg
